In US20250134800A1, “Biomass Extract For Skin Applications” (EMBION TECHNOLOGIES SA, priority 2022, published 2025):

What was measured:
[1] = tested on: S. aureus; assay: Inhibitory study on colonized Reconstructed Human Epidermis (RHE), viable count; format: cell-based, Staphylococcus aureus
Text: The principal aim of the present study was to evaluate the potential efficacy of BSG-derived preparations on a more biologically relevant in vitro preclinical model based on colonized Reconstructed Human Epidermis (RHE). The main focus was given to: • I. to counteract Staphylococcus aureus adhesion and its proliferative capacity. The rationale was based on the possibility of the ingredients to balance the inflammatory reaction induced by the bacterium, reducing its adhesion and growth on RHE model (inhibitory study); • II. the prebiotic effect of the 3 preparations versus Staphylococcus epidermidis (prebiotic study). The rationale was based on the possibility of the ingredients to protect and biostimulant the normal skin microbiota; • III. their biological impact on sterile RHE model. The rationale was based on the possibility that the ingredients to enhance or balance the innate immune response.
For this study the following BSG-derived preparations were used: • for inhibitory and ingredient impact effects: P1 at 1%, P3 at 2% and P4 at 4%; • for prebiotic effect: […] at 1%, P3 at 2% and P5 at 1%.
SkinEthic^@ Reconstituted Human Epidermis 0.5 cm^2 is a reconstructed epidermis of normal human keratinocytes. Cells are grown on inert polycarbonate filters in chemically defined medium, for 17 days. The model reproduces epidermal morphology and it has been fully characterized. The good barrier function, batch reproducibility and low variability in terms of permeability for probe molecules have been described in Literature compared to human ex-vivo models. The RHE batch was tested for the absence of HIV1 and 2 antibodies, hepatitis C antibodies and hepatitis B antigen HBs. On cells from the donors, was verified the absence of bacteria, fungus and mycoplasma. The maintenance medium was tested for sterility.
Two days before the test, bacterial strains (S. aureus and S. epidermidis) were daily inoculated onto culture medium (BHI agar plate) and incubated at 37° C. in aerobic conditions for at least 24 h in order to obtain a fresh culture. The day of the colonization, bacterial strains have been resuspended in sterile saline solution at the required concentration range. Each starting bacterial inoculum concentration was checked by spectrophotometric OD measure and adjusted to obtain a range of about 10^7-10^8 UFC/mL (OD=0.1); it was then diluted 10-fold to obtain a final range concentration of 10^3-10^4 UFC/tissue for the inhibitory study and 10^4-10^5 UFC/tissue for prebiotic study. The starting inoculum level was also confirmed by serial decimal dilutions and viable counts on agar plates (BHI).
For both inhibitory and prebiotic RHE were pre-treated twice (overnight and 1 h before colonization respectively with 50 uL and 30 uL) on the apical part (directly spread on tissue surface) and left incubated at 37° C. (with CO2 5%) up to the colonization. Pre-treated RHE dedicated to inhibitory and prebiotic studies were colonized with 30 μL of the bacterial suspension previously obtained (respectively with S. aureus for inhibitory study and S. epidermidis for prebiotic study) and incubated at 37° C. (with CO2 5%) up to the required time point (24 h). RHE sterile were not colonized pre-treated twice (overnight and 1 h before colonization respectively with 50 uL and 30 uL) on the apical part (directly spread on tissue surface) and left incubated at 37° C. (with CO2 5%) up to the required time point (24 h). […]

[2] = tested on: Staphylococcus aureus (MRSA) ATCC 33591; assay: Microdilution assay in liquid broth, viable count on agar plates; format: cell-based; conditions: positive controls at 4%, up to 24 h
Experimental: (§1) A microbiological screening study on liquid broth was performed to assess the activity (bacterial growth) of 5 preparations (P1, P2, P3, P4 and P5) on two Staphylococcus species: (1) Staphylococcus aureus (MRSA) ATCC 33591 as potential skin pathogen and (2) Staphylococcus epidermidis ATCC 12228 as commensal strain in healthy skin. With the aim to assess a potential and strain specific antimicrobial or prebiotic activity vs Staphylococcus spp and to validate the hypothesis that the ingredients may have a prebiotic effect (on S. epidermidis) and meanwhile negatively impacting the viability or growth rate (on S. aureus), the experimental results are presented below.
(§2) To assess a potential and strain specific antimicrobial or prebiotic activity vs Staphylococcus spp.: a microdilution assay (viable count on agar plates) in liquid broth was performed using 3 different concentrations, 4%-2%-1% for each ingredient, compared to inulin and glucose as carbon source and prebiotic reference. […]
(§3) The growth rate checked by viable count (CFU/mL) was performed to quantify the number of residual viable cells present in the test cultures and they were then expressed as Log values.

[3] = tested on: Staphylococcus epidermidis ATCC 12228; assay: as above; format: cell-based; conditions: positive controls at 4%, up to 24 h
Experimental: as §1, §2, §3

[4] = RHE model after 2 days, vs colonized control, P1 1%, P3 2%, P4 4%, Chlorexidine 1%
[5] = RHE model after 2 days, P1 1%, P3 2%, P4 4%, Chlorexidine 1%

Molecule	bacterial growth on RHE compared to the colonized control ([1]; P3 at 2%, P4 at 4%, REF Chlorexidine 1%)	Apical fraction Log reductions [1, 4] [Log]	Homogenate fraction Log reductions [1, 4] [Log]	Apical fraction Log (Mean) viable count [1, 5] [Log]	Homogenate fraction Log (Mean) viable count [1, 5] [Log]	growth compared with inoculum count [2]	growth compared with inoculum count [3]
N=C(NCCCCCCNC(=N)NC(=N)Nc1ccc(Cl)cc1)NC(=N)Nc1ccc(Cl)cc1 [REF, Chlorexidine]	no bacterial growth	>3.26	>3.00	<2.00	<2.00	–	–
Inulin	–	–	–	–	–	growth similar to the inoculum count	growth similar to the inoculum count
